The subject of one data set is S. marcescens. In words: Photosensitizer with or without H2O2 or PHMB, rate of kill, S. marcescens. The format is cell-based. On the procedure: All solutions (testing and control) are then incubated for about 5 minutes at 37° C. in the dark in an orbital incubator prior to exposure to the relevant light conditions. […]
(§1) After incubation overnight, the colony forming units at the dilution where they can best be counted are quantified and number of colony forming units per mL calculated.
In all instances the bacterial challenge is at least 5×10^5 cfu/mL. SoftWear Saline (providing 0.003% H2O2), photosensitizer solutions are made up at double the concentration to be tested using the SoftWear Saline as the diluent. 2.5 mLs of this solution is then mixed with 2.5 mLs of bacteria to form the test solutions.
In all instances the bacterial challenge is at least 5×10^5 cfu/mL. Solutions containing the photosensitizers and PHMB are made up separately at quadruple the concentration to be tested.

In a further data set the test system is P. aeruginosa. Briefly: Photosensitizer rate of kill under light exposure, P. aeruginosa. The format is cell-based. The procedure: P. aeruginosa is grown in nutrient broth for about 18 hours to bring the bacteria into the logarithmic growth phase prior to being spun down via centrifugation and the pellet resuspended in sterile phosphate buffered saline (PBS). The bacterial suspension is then diluted to obtain an OD of 0.9 at 540 nm. This stock bacterial solution is subsequently diluted 1 in 500 to obtain a test solution containing about 10^5-10^6 cfu/ml.
A solution of one of the five photosensitizers is made at double the concentration to be tested.
A testing solution (lens care solution) is prepared by adding 5 mL of a photosensitizer solution to 5 mL of the bacterial solution.
Two control solutions are prepared by adding 5 mL of sterile PBS to 5 mL of the bacterial solution. One of the two control solutions is kept in the dark (i.e., Control Dark) and the other one is exposed to the same light conditions as the photosensitizer test solutions (i.e., Control Light).
All solutions (testing and control) are then incubated for about 5 minutes at 37° C. in the dark in an orbital incubator prior to exposure to the relevant light conditions. The light source used provides broad spectrum visible light and the temperature is controlled using a fan.
as §1
All solutions are then incubated for about 5 minutes at 37° C. in the dark in an orbital incubator prior to exposure to the relevant light conditions.
Two light sources are used to assess antibacterial activity of the range of photosensitizers. One is a broad spectrum light source which emits light across visible spectrum. […] The other light source used is a red LED, which emits light of a single wavelength at 630 nm.
The red LED light source emits with a power of 27 mW/cm2. In both instances, the power is measured using an ILT-1400 A Radiometer/Photometer.
as §1

Another data set relates to C. albicans. In words: Photosensitizer with PHMB, rate of kill, C. albicans. The format is cell-based. The following applies: 10 μg/mL with 0.00005% PHMB; LED 630 nm; one hour; about 10^7 cfu/ml. The procedure:
All materials used and the method used to determine the rate of bacterial kill are described in Example 1 as was the method. In all instances the bacterial challenge is at least 5×10^5 cfu/mL. Solutions containing the photosensitizers and PHMB are made up separately at quadruple the concentration to be tested. 1.25 mLs of each solution is then added to 2.5 mLs of bacteria suspension to render the correct concentration to be tested.
Where a testing solution contains 10 μg/mL TMPyP and 0.00005% PHMB, a 5 Log reduction in bacterial viability against about 10^7 cfu/ml C. albicans is observed after one hour of light exposure to a LED (630 nm).

The conditions of data set [1]: dissociation constant of the dibasic compound; cited from earlier work.
Setting [2] is: 5 μg/mL, red light/LED 630 nm, one hour, about 10^5 cfu/ml.
Where [3] appears, read: 10 μg/mL, broad spectrum light source, about 45 minutes, about 10^5 cfu/ml.

Regarding `CN(C)c1ccc2nc3ccc(=[N+](C)C)cc-3sc2c1` [MB, Methylene Blue], the “Log reduction in bacterial viability” value in the data set with S. marcescens (20 μg/mL, free of H2O2, red LED 630 nm, one hour, about 10^5 cfu/ml) is recorded as “no reduction in bacterial viability”.
`O=C1OC2(c3cc(I)c(O)c(I)c3Oc3c2cc(I)c(O)c3I)c2c(Cl)c(Cl)c(Cl)c(Cl)c21` [RB, Rose Bengal]: the “Log reduction in bacterial viability” value in the data set with P. aeruginosa (about 250 μg/mL, broad spectrum visible light, 30 minutes, about 10^5 cfu/ml) is 5-6 Log; with S. marcescens (10 μg/mL with 0.00005% PHMB, LED 630 nm, 15 minutes, about 10^5 cfu/ml) it was 2 Log; in the data set on S. marcescens (10 μg/mL with 0.003% H2O2, LED 630 nm, about 10^5 cfu/ml), “no reduction in bacterial viability”; in the data set with S. marcescens (10 μg/mL, free of H2O2 or PHMB, LED 630 nm, about 10^5 cfu/ml) it was “no reduction in bacterial viability”. Moreover, the “further reduction in bacterial viability on additional light exposure” value in the data set with S. marcescens (10 μg/mL with 0.00005% PHMB, LED 630 nm, additional light exposure up to one hour) is recorded as “does not reduce bacterial viability”.
In the case of `Cc1cc2nc3ccc(N(C)C)cc3[s+]c2cc1N.[Cl-]` [TBO, Toluidine Blue O], the “Log reduction in bacterial viability” value is 5-6 Log in the data set with P. aeruginosa (5 μg/mL, broad spectrum light source, about 30 minutes, about 10^5 cfu/ml); 5-6 Log in the data set on P. aeruginosa (setting [2]); 5-6 Log in the data set with P. aeruginosa (setting [3]); 3 Log with P. aeruginosa (50 μg/mL, broad spectrum light source, between 30 to 45 minutes, about 10^5 cfu/ml); 3 Log with S. marcescens (0.625 μg/mL with 0.00005% PHMB, LED 630 nm, about 15 minutes, about 10^5 cfu/ml); 5-6 Log in the data set on S. marcescens (0.625 μg/mL with 0.00005% PHMB, LED 630 nm, about 30 minutes, about 10^5 cfu/ml). For the same compound, the “Log reduction in bacterial viability” value in the data set on S. marcescens (1.25 μg/mL with 0.00005% PHMB, red LED 630 nm, about 15 minutes, about 10^5 cfu/ml) was 3 Log; in the data set on S. marcescens (1.25 μg/mL with 0.00005% PHMB, red LED 630 nm, about 45 minutes, about 10^5 cfu/ml) it was 5-6 Log; in the data set with S. marcescens (2.5 μg/mL with 0.00005% PHMB, red LED 630 nm, about 30 minutes, about 10^5 cfu/ml) it was 5-6 Log; in the data set on S. marcescens (2.5 μg/mL with 0.0005% PHMB, red LED 630 nm, about 15 minutes, about 10^5 cfu/ml) it was 5-6 Log; in the data set with S. marcescens (2.5 μg/mL with 0.003% H2O2, red LED 630 nm, 30 minutes, about 10^5 cfu/ml), 5-6 Log; in the data set on S. marcescens (5 μg/mL only, free of H2O2, red LED 630 nm, 45 minutes), 5-6 Log. Moreover, in the data set with P. aeruginosa (250 μg/mL, broad spectrum visible light, time not stated, about 10^5 cfu/ml), the “reduction in bacterial viability” value is “no reduction in bacterial viability”. Moreover, the “Rate of kill (Log reduction in bacterial viability)” value in the data set on P. aeruginosa (375 μg/mL, broad spectrum visible light, 30 minutes light exposure, about 10^5 cfu/ml) is listed as 5-6 Log; in the data set on P. aeruginosa (500 μg/mL, broad spectrum visible light, 15 minutes light exposure, about 10^5 cfu/ml) it was 5-6 Log. Besides, the “Time of Light Exposure” value in the data set with P. aeruginosa (375 μg/mL, broad spectrum visible light, time for the stated rate of kill) came to 30 min; in the data set with P. aeruginosa (500 μg/mL, broad spectrum visible light, time for the stated rate of kill (Table 2)), 15 min.
For the compound `C[n+]1ccc(-c2c3nc(c(-c4cc[n+](C)cc4)c4ccc([nH]4)c(-c4cc[n+](C)cc4)c4nc(c(-c5cc[n+](C)cc5)c5ccc2[nH]5)C=C4)C=C3)cc1.Cc1ccc(S(=O)(=O)[O-])cc1.Cc1ccc(S(=O)(=O)[O-])cc1.Cc1ccc(S(=O)(=O)[O-])cc1.Cc1ccc(S(=O)(=O)[O-])cc1` [TMPyP, tetra(N-methyl-4-pyridyl)porphine tetratosylate], the “Log reduction in bacterial viability” value was 2 Log in the data set on P. aeruginosa (5 μg/mL, broad spectrum light source, one hour, about 10^5 cfu/ml); 5-6 Log in the data set with P. aeruginosa (5 μg/mL, broad spectrum light source, two hours, about 10^5 cfu/ml); 2 Log in the data set on P. aeruginosa (setting [2]); 5-6 Log in the data set with P. aeruginosa (setting [3]); 5-6 Log in the data set with P. aeruginosa (10 μg/mL, red LED 630 nm, about 45 minutes, about 10^5 cfu/ml); 3 Log with S. marcescens (10 μg/mL with 0.00005% PHMB, red LED 630 nm, about 45 minutes, about 10^5 cfu/ml). Besides, the “Log reduction in bacterial viability” value in the data set with S. marcescens (10 μg/mL with 0.0005% PHMB, red LED 630 nm, about 15 minutes, about 10^5 cfu/ml) is reported as 5-6 Log; in the data set with S. marcescens (10 μg/mL with 0.003% H2O2, red LED 630 nm, one hour, about 10^5 cfu/ml), “about 3 Log”; in the data set with C. albicans, 5 Log. Further, the “Rate of kill (Log reduction in bacterial viability)” value is 5-6 Log with P. aeruginosa (50 μg/mL, broad spectrum visible light, 45 minutes light exposure, about 10^5 cfu/ml); 5-6 Log with P. aeruginosa (250 μg/mL, broad spectrum visible light, 45 minutes light exposure, about 10^5 cfu/ml); 5-6 Log with P. aeruginosa (500 μg/mL, broad spectrum visible light, 30 minutes light exposure, about 10^5 cfu/ml). Moreover, the “Time of Light Exposure” value with P. aeruginosa (50 μg/mL, broad spectrum visible light, time for the stated rate of kill) was found to be 45 min; in the data set on P. aeruginosa (250 μg/mL, broad spectrum visible light, time for the stated rate of kill), 45 min; in the data set with P. aeruginosa (500 μg/mL, broad spectrum visible light, time for the stated rate of kill (Table 1)) it was 30 min.
With `Cl.Cl.O=S(=O)(O)c1ccc(-c2c3nc(c(-c4ccc(S(=O)(=O)O)cc4)c4ccc([nH]4)c(-c4ccc(S(=O)(=O)O)cc4)c4nc(c(-c5ccc(S(=O)(=O)O)cc5)c5ccc2[nH]5)C=C4)C=C3)cc1` [TSPP, meso-tetra(4-sulfonatophenyl)porphine dihydrochloride], the biocidal activity result in the data set on P. aeruginosa (about 1 mg/mL, broad spectrum visible light, about 10^5 cfu/ml) was “no significant biocidal activity”.
Take `OCC(CO)(CO)NCCCNC(CO)(CO)CO` [bis-TRIS-propane, 1,3-bis(tris[hydroxymethyl]methylamino)propane]: in data set [1], the pKa1 was 6.8 and the pKa2 is reported as 9.5.
For the compound polyhexamethylene biguanide [PHMB], the “Log reduction in bacterial viability” value in the data set on S. marcescens (0.00005% PHMB without any sensitizer, one hour, about 10^5 cfu/ml) is given as 1 Log.

Source of the values: patent US20110217202A1, “ACTIVE OXYGEN DISINFECTION SYSTEM AND USE THEREOF” (priority 2010, published 2011).
